Measured values as given in patent US8398958B2, “Carotenoid compositions useful for whitening skin” (I.B.R. Israeli Biotechnology Research Ltd., priority 2006, dated 2013).

Assays:
[1] = system: B16 murine melanoma cells; test: Melanin assay - B16 murine melanoma; type: cell-based; details: tested at 0.04%
Protocol: The R7-B16 cells were cultivated in 24 well plates (1000 cells/well). At 20% confluence, culture media were replaced by fresh media containing or not containing (control) the test compound, KA or IBMX (references) or DMSO at a final concentration of 0.5% (control DMSO). Each experimental condition was examined in triplicate. The cells were incubated at 37° C. for 144 hours with medium change after 3 days (2×72 h).
(§1) After incubation, the cell monolayers were rinsed, the cells were lysed and melanin was extracted by a solution 0.5 M NaOH. The optical density (OD) of each experimental point was measured at 405 nm against melanin standards (standard curve 0.39 to 100 μg melanin/ml solution, Sigma M8631). Results were expressed in μg melanin/ml and in percent of the negative control.
(§2) The raw data were transferred to and analyzed with PRISM® software (Graph Pad Software). The inter-group comparisons were performed by variance analysis (ANOVA) with multiple comparison test of Dunnett.

[2] = system: Normal human epidermal melanocytes (NHEM-2); test: Melanin assay - normal human melanocytes; type: cell-based; details: for Melanin: 240 hours incubation; for % of control (melanin content): 240 hours, vs control
Protocol: The R6-NHEM-2 cells were cultivated in 24 well plates (120,000 cells/well). At 50% confluence, culture media were replaced by fresh media containing or not containing (control) the test compound, KA or IBMX (references) or DMSO at a final concentration of 0.5% (control DMSO). Each experimental condition was examined in triplicate (hexaplicate for control). The cells were incubated at 37° C. for 240 hours with medium change every 3 days.
as §1, §2

With `O=c1cc(CO)occ1O` [Kojic Acid] as the molecule, how does the Melanin ([1]; 144 hours incubation) read?
The Melanin was 14.9 µg/mL.

What about the “% of control (melanin content)” value ([1]; 144 hours, vs control) of the same molecule?
Its value is 88%.

And the Melanin ([2]; tested at 0.00156%)?
The Melanin was 16.1 µg/mL.

And the “% of control (melanin content)” value ([2]; tested at 0.00156%)?
Its value is 79%.

What about the Melanin ([2]; tested at 0.0036%) of the same molecule?
The Melanin was 13.6 µg/mL.

And the “% of control (melanin content)” value ([2]; tested at 0.0036%)?
Its value is 67%.
